Measurements as given in patent publication US11160272B2, “Methods for preserving tissue with medical grade honey” (TRITICUM EXPLOITATIE B.V., priority 2017, dated 2021).

System: bovine ovarian cortex tissue
Assay: Endothelial cell density (Factor VIII immunolocalization) in cultured ovarian cortex tissue
Format: cell-based
Settings: treatment mean over 0 h, 4 h, 24 h, 48 h; L-Mesitran 0.2%, VEGF 50 ng.mL-1; in vitro culture TCM-199 with 10% cow serum
Text: Four mature crossbred beef cows (12 months of age) were used for this study. […] The 0.2% v/v concentration (L-Mesitran) was chosen according to the highest reported pro-angiogenic effect for this medical grade honey in an in vitro tissue culture. The ovarian cortex endothelial immunolocalization was quantified using Factor VIII [9] R Ag. Rabbit Polyclonal Antibody (ref 760-2642; BenchMark ULTRA IHC/ISH Module staining protocol; Ventana Medical Systems, Inc.; Roche, USA) at concentrations of 2.26 µg/ml, and Fiji software for the digital analysis, after 0 h, 4 h, 24 h and 48 h in each of the mentioned 4 groups. Cellular cytotoxicity (quantitation of lactate dehydrogenase, LDH [11], in cell culture supernatant) was also evaluated in the same mentioned time periods (CytoTox 96® Non-Radioactive Cytotoxicity Assay G1782, Promega GloMax Multi Detection System).
Data from ovarian cortex tissue endothelial density (immunohistochemistry data) and LDH quantification in cell culture supernatant, were analysed using the proc glimmix of SAS (Statistical Analysis Systems, SAS Inst., Inc., Cary, N.C., USA). The models included treatments and hours as fixed effects, and animal (cow) as random (co-variable) effect. The means of each treatment/hours were calculated and compared by the PDIFF multiple comparison test. The differences were considered significant for P≤0.05.

Substance: VEGF
- Endothelial cell density (Factor VIII immunolocalization), treatment effect: 0.2942±0.1486
